Test results taken from patent US20180161314A1, “Methods for Treating Hyperuricemia and Related Diseases” (Ardea Biosciences, Inc., priority 2010, published 2018).

Tested on: healthy adult subjects
Assay: Drug 1 / febuxostat cross-over interaction study in healthy adult subjects (Examples 10-12)
Type: in vivo, human
Details: for % serum uric acid change, Mean: drug 1 200 mg qd, febuxostat 40 mg qd
From the text: Study Objectives • To compare the multiple-dose pharmacokinetics of febuxostat in the absence versus presence of drug 1 co-administration. • To compare the multiple-dose pharmacokinetics of drug 1 in the absence versus presence of febuxostat co-administration. • To measure the effects of drug 1 and febuxostat, both alone and in combination, on serum uric acid concentrations and amounts of urate excreted into urine. • To evaluate the safety and tolerability of multiple-doses of drug 1 and febuxostat, both alone or in combination.
The study is a two or three-panel, placebo-controlled (for drug 1), double-blinded (for drug 1 and matched placebo), randomized, cross-over study with up to 54 healthy adult subjects. Each panel consisting of 18 subjects is sequentially enrolled, starting with Panel 1 (200 mg once daily dose of drug 1 or placebo), followed by Panel 2 (400 mg once daily dose of drug 1 or placebo), and followed by optional Panel 3 (100 mg to 600 mg once daily dose of drug 1 or placebo). The placebo control is included in this study to better assess safety and tolerability and the serum urate lowering effect of drug 1 in combination with febuxostat. Serum urate levels may be influenced by frequent blood draws and meal contents; therefore, the true effect on serum urate levels can be determined by correcting for placebo (subtract serum urate effect in placebo subjects from serum urate effect in active subjects).
Subjects in each panel are randomly assigned to one of two treatment sequences (Sequence A or B) after all Baseline (Day −1) procedures have been completed. Each treatment sequence within a panel consists of 9 subjects randomly assigned to receive drug 1 (6 of 9 subjects) or matching placebo (3 of 9 subjects) in a double-blinded fashion. For each treatment sequence, single-agent drug treatment is administered on Days 1 to 7 (either open-label febuxostat or double-blinded drug 1 or matched placebo by random assignment), followed by combination treatment on Days 8 to 14, and completing with the alternative single-agent drug treatment on Days 15 to 21, as follows (Panel 1 shown in FIG. 2):
Sequence A: Days 1-7: Febuxostat, 40 mg (once daily) • Days 8 to 14: drug 1, 200 mg or placebo in combination with febuxostat (once daily) • Days 15-21: drug 1, 200 mg, or placebo (once daily) Sequence B: Days 1-7: drug 1, 200 mg, or placebo (once daily) • Days 8 to 14: drug 1, 200 mg or placebo in combination with febuxostat (once daily) • Days 15-21: Febuxostat, 40 mg (once daily) […]
Serial blood samples for PK and PD assessments are collected up to 24 hours after dosing on Days 7, 14, and 21. Urine (total catch) for assays of drug 1, creatinine, and uric acid are collected starting on Day −1 (pre-treatment baseline) and after dosing on Days 7, 14, and 21. Final safety assessments are completed when subjects return to the clinic at 7±1 days after discharge from the clinic on Day 22 (Follow-Up visit on Day 29). The total volume of blood collected from each subject is approximately 518 mL.
Screening procedures to determine subject eligibility are performed 28 days before the first dose of study drug (Day 1). A total of up to 54 subjects enrolled in up to 3 panels consisting of 2 sequences each, with 9 subjects per sequence (18 subjects per panel). Subjects withdrawing after dosing are not replaced.
Subjects in Panel 1 receive a 200 mg dose of drug 1 or placebo once daily for 14 days and a 40 mg dose of febuxostat once daily for 14 days. Subjects in Panel 2 receive a 400 mg dose of drug 1 or placebo once daily for 14 days and a 40 mg dose of febuxostat once daily for 14 days. Subjects in Panel 3 receive a 100-600 mg dose of drug 1 or placebo once daily for 14 days and a 40 mg dose of febuxostat once daily for 14 days.
Subjects in Sequence A begin dosing on Day 1 with febuxostat and take their first dose of drug 1 or placebo on Day 8. […]

[1] = Week 1, Drug 1 200 mg alone, febuxostat 40 mg alone
[2] = Week 3, Drug 1 200 mg alone, febuxostat 40 mg alone

O=C(O)CSc1nnc(Br)n1-c1ccc(C2CC2)c2ccccc12 [Drug 1, Sodium 2-(5-bromo-4-(4-cyclopropylnaphthalen-1-yl)-4H-1,2,4-triazol-3-ylthio)acetate]
serum uric acid change from baseline, daily (Day 1, Drug 1 200 mg, FBX 40 mg): −7.4% | serum uric acid change from baseline, daily (Day 1, Drug 1 400 mg): −5.5% | % serum uric acid change, Mean (Day 1): −14.8% | serum uric acid change from baseline, daily (Day 2, Drug 1 200 mg, FBX 40 mg): −22.3% | serum uric acid change from baseline, daily (Day 2, Drug 1 400 mg): −28.9% | % serum uric acid change, Mean (Day 2): −26.3% | serum uric acid change from baseline, daily (Day 3, Drug 1 200 mg, FBX 40 mg): −32.4% | serum uric acid change from baseline, daily (Day 3, Drug 1 400 mg): −33.3% | % serum uric acid change, Mean (Day 3): −34.7% | serum uric acid change from baseline, daily (Day 4, Drug 1 200 mg, FBX 40 mg): −37.7% | serum uric acid change from baseline, daily (Day 4, Drug 1 400 mg): −36.2% | % serum uric acid change, Mean (Day 4): −31.6% | serum uric acid change from baseline, daily (Day 5, Drug 1 200 mg, FBX 40 mg): −36% | serum uric acid change from baseline, daily (Day 5, Drug 1 400 mg): −37.3% | % serum uric acid change, Mean (Day 5): −31.3% | serum uric acid change from baseline, daily (Day 6, Drug 1 200 mg, FBX 40 mg): −39.1% | serum uric acid change from baseline, daily (Day 6, Drug 1 400 mg): −45.6% | % serum uric acid change, Mean (Day 6): −36.2% | serum uric acid change from baseline, daily (Day 7, Drug 1 200 mg, FBX 40 mg): −41.2% | serum uric acid change from baseline, daily (Day 7, Drug 1 400 mg): −48.8% | % serum uric acid change, Mean (Day 7): −40.7% | serum uric acid change from baseline, daily (Day 8, Drug 1 200 mg, FBX 40 mg, alone or combined as labelled): −38.9% | serum uric acid change from baseline, daily (Day 8, Drug 1 400 mg, alone or + FBX 40 mg as labelled): −42.5% | % serum uric acid change, Mean (Day 8): −37.6% | serum uric acid change from baseline, daily (Day 15, Drug 1 200 mg, FBX 40 mg, alone or combined as labelled): −54.8% | serum uric acid change from baseline, daily (Day 15, Drug 1 400 mg, alone or + FBX 40 mg as labelled): −68.1% | serum uric acid change from baseline, daily (Day 16, Drug 1 200 mg alone (week 3), FBX 40 mg alone): −42.5% | serum uric acid change from baseline, daily (Day 16, Drug 1 400 mg alone (week 3)): −53.4% | serum uric acid change from baseline, daily (Day 17, Drug 1 200 mg alone (week 3), FBX 40 mg alone): −37.5% | serum uric acid change from baseline, daily (Day 17, Drug 1 400 mg alone (week 3)): −44.8% | serum uric acid change from baseline, daily (Day 18, Drug 1 200 mg alone (week 3), FBX 40 mg alone): −32.8% | serum uric acid change from baseline, daily (Day 18, Drug 1 400 mg alone (week 3)): −40.7% | serum uric acid change from baseline, daily (Day 19, Drug 1 200 mg alone (week 3), FBX 40 mg alone): −25.9% | serum uric acid change from baseline, daily (Day 19, Drug 1 400 mg alone (week 3)): −33.8% | serum uric acid change from baseline, daily (Day 20, Drug 1 200 mg alone (week 3), FBX 40 mg alone): −33% | serum uric acid change from baseline, daily (Day 20, Drug 1 400 mg alone (week 3)): −40% | serum uric acid change from baseline, daily (Day 21, Drug 1 200 mg alone (week 3), FBX 40 mg alone): −32.4% | serum uric acid change from baseline, daily (Day 21, Drug 1 400 mg alone (week 3)): −46.4% | serum uric acid change from baseline, daily (Day 22, Drug 1 200 mg alone (week 3), FBX 40 mg alone): −32.8% | serum uric acid change from baseline, daily (Day 22, Drug 1 400 mg alone (week 3)): −41.3% | Absolute sUA reduction from baseline, Intraday peak [1]: -3.1 mg/dL | Absolute sUA reduction from baseline, Trough [1]: -2.4 mg/dL | Percent sUA reduction from baseline, Intraday peak [1]: −50.4% | Percent sUA reduction from baseline, Trough [1]: −39.7% | Absolute sUA reduction from baseline, Intraday peak (Week 1, Drug 1 400 mg alone): -4.2 mg/dL | Absolute sUA reduction from baseline, Trough (Week 1, Drug 1 400 mg alone): -3.4 mg/dL | Percent sUA reduction from baseline, Intraday peak (Week 1, Drug 1 400 mg alone): −60.7% | Percent sUA reduction from baseline, Trough (Week 1, Drug 1 400 mg alone): −48.5% | Absolute sUA reduction from baseline, Intraday peak [2]: -2.8 mg/dL | Absolute sUA reduction from baseline, Trough [2]: -2.0 mg/dL | Percent sUA reduction from baseline, Intraday peak [2]: −48.5% | Percent sUA reduction from baseline, Trough [2]: −34.7% | Absolute sUA reduction from baseline, Intraday peak (Week 3, Drug 1 400 mg alone): -3.6 mg/dL | Absolute sUA reduction from baseline, Trough (Week 3, Drug 1 400 mg alone): -2.9 mg/dL | Percent sUA reduction from baseline, Intraday peak (Week 3, Drug 1 400 mg alone): −56.9% | Percent sUA reduction from baseline, Trough (Week 3, Drug 1 400 mg alone): −45.5%
